In US8158792B2, “Spiropiperidines for use as tryptase inhibitors” (Janssen Pharmaceutica N.V., priority 2007, dated 2012):

Molecular target: human lung tryptase
Assay: β-Tryptase In-Vitro Enzyme Assay
Format: biochemical
Conditions: human lung tryptase 1 nM, substrate H-D-HHT-Ala-Arg-pNa 500 μM, pH 7.4, room temperature
Method: The β-tryptase assay was conducted with human lung tryptase (Cortex Biochem #CP3033) in an aqueous buffer (10 mM Tris, 10 mM Hepes, 150 mM NaCl, 0.1% PEG 8000, pH 7.4) using the chromogenic substrate H-D-HHT-Ala-Arg-pNa. […] Percent inhibition was calculated by comparing the initial reaction velocity of samples without inhibitor to those with inhibitor. The initial reaction velocities were analyzed using Microsoft Excel.

Question: For `NCc1ccc2c(c1)C1(CCN(C(=O)[C@@H]3C[C@H]3c3ccccc3)CC1)CO2` (relative stereo) [Cpd 141, 1-(trans-2-phenyl-cyclopropyl)carbonyl-5′-aminomethyl-spiro[piperidine-4,3′-(2H)-benzo[b]furan]], which IC50 is on record?
Answer: 480 nM

Question: With `NCc1ccc2c(c1)C1(CCN(C(=O)c3ccc(Cl)c(Cl)c3)CC1)CO2` [Cpd 1, 1-(3,4-dichlorophenyl)carbonyl-5′-aminomethyl-spiro[piperidine-4,3′-(2H)-benzo[b]furan]] as the compound, how does the IC50 read?
Answer: 31 nM

Question: How did the IC50 turn out when `O=C(NCc1ccc2c(c1)C1(CCNCC1)CO2)c1ccc(Cl)c(Cl)c1` [Cpd 2, 5′-(3,4-dichlorophenylcarbonylaminomethyl)-spiro[piperidine-4,3′-(2H)-benzo[b]furan]] was run?
Answer: 1400 nM

Question: How did the IC50 turn out when `NCc1ccc2c(c1)C1(CCN(C(=O)c3cccc(C(=O)c4ccccc4)c3)CC1)CO2` [Cpd 4, 1-(3-benzoyl-phenyl)carbonyl-5′-aminomethyl-spiro[piperidine-4,3′-(2H)-benzo[b]furan]] was run?
Answer: 750 nM

Question: Which IC50 does the source give for `NCc1ccc2c(c1)C1(CCN(C(=O)c3cccc(NC(N)=S)c3)CC1)CO2` [Cpd 5, 1-(3-aminothiocarbonylamino-phenyl)carbonyl-5′-aminomethyl-spiro[piperidine-4,3′-(2H)-benzo[b]furan]] here?
Answer: 450 nM

Question: How did the IC50 turn out when `NCc1ccc2c(c1)C1(CCN(C(=O)c3ccc(C(=O)c4ccccc4)cc3)CC1)CO2` [Cpd 6, 1-(4-benzoyl-phenyl)carbonyl-5′-aminomethyl-spiro[piperidine-4,3′-(2H)-benzo[b]furan]] was run?
Answer: 5800 nM

Question: How did the IC50 turn out when `NCc1ccc2c(c1)C1(CCN(C(=O)c3ccc4c(c3)S(=O)(=O)c3ccccc3C4=O)CC1)CO2` [Cpd 7, 1-(9-oxo-10,10-dioxo-thioxanthen-3-yl)carbonyl-5′-aminomethyl-spiro[piperidine-4,3′-(2H)-benzo[b]furan]] was run?
Answer: 780 nM

Question: `NCc1ccc2c(c1)C1(CCN(C(=O)c3ccc4c(c3)C(=O)c3ccccc3-4)CC1)CO2` [Cpd 8, 1-(9-oxo-fluoren-2-yl)carbonyl-5′-aminomethyl-spiro[piperidine-4,3′-(2H)-benzo[b]furan]] was tested. Which IC50 did it give?
Answer: 3400 nM

Question: Which IC50 does the source give for `NCc1ccc2c(c1)C1(CCN(C(=O)c3ccc(NC(=O)Cn4cnc5ccccc54)cc3)CC1)CO2` [Cpd 9, 1-(4-benzoimidazol-1-ylmethylcarbonylamino-phenyl)carbonyl-5′-aminomethyl-spiro[piperidine-4,3′-(2H)-benzo[b]furan]] here?
Answer: 3300 nM

Question: Which IC50 does the source give for `NCc1ccc2c(c1)C1(CCN(C(=O)c3ccc(Cn4cnc5ccccc54)cc3)CC1)CO2` [Cpd 10, 1-(4-benzoimidazol-1-ylmethyl-phenyl)carbonyl-5′-aminomethyl-spiro[piperidine-4,3′-(2H)-benzo[b]furan]] here?
Answer: 3000 nM

Question: Which IC50 does the source give for `NCc1ccc2c(c1)C1(CCN(C(=O)c3ccc(S(N)(=O)=O)cc3)CC1)CO2` [Cpd 11, 1-(4-aminosulfonyl-phenyl)carbonyl-5′-aminomethyl-spiro[piperidine-4,3′-(2H)-benzo[b]furan]] here?
Answer: 4700 nM

Question: With `NCc1ccc2c(c1)C1(CCN(C(=O)c3ccc(-c4ccc(Cl)cc4)o3)CC1)CO2` [Cpd 12, 1-[5-(4-chloro-phenyl)-furan-2-yl]carbonyl-5′-aminomethyl-spiro[piperidine-4,3′-(2H)-benzo[b]furan]] as the compound, how does the IC50 read?
Answer: 66 nM

Question: How did the IC50 turn out when `NCc1ccc2c(c1)C1(CCN(C(=O)c3cc4cc(Cl)ccc4o3)CC1)CO2` [Cpd 13, 1-(5-chloro-benzo[b]-furan-2-yl)carbonyl-5′-aminomethyl-spiro[piperidine-4,3′-(2H)-benzo[b]furan]] was run?
Answer: 1100 nM

Question: How did the IC50 turn out when `Cc1nc2cc(C(=O)N3CCC4(CC3)COc3ccc(CN)cc34)ccc2n1-c1ccccc1` [Cpd 14, 1-(1-phenyl-2-methyl-benzoimidazol-5-yl)carbonyl-5′-aminomethyl-spiro[piperidine-4,3′-(2H)-benzo[b]furan]] was run?
Answer: 3700 nM

Question: For `NCc1ccc2c(c1)C1(CCN(C(=O)c3ccc(-c4cccc(C(F)(F)F)c4)cc3)CC1)CO2` [Cpd 15, 1-[4-(3-trifluoromethyl-phenyl)-phenyl]carbonyl-5′-aminomethyl-spiro[piperidine-4,3′-(2H)-benzo[b]furan]], which IC50 is on record?
Answer: 5500 nM
